Assay [1] relates to NCI-H226. The assay is described as follows: cells. The note with it: Homo sapiens.
Assay [2] concerns OVCAR-4. The assay is described as follows: cells. The note with it: Homo sapiens.

Each structure is given as a SMILES string.

As usually defined, the GI50 is the concentration at which growth is held to half of that of the control. Low values mean more potent growth inhibition, high ones less potent growth inhibition. As to `CCCn1cc(C=NN=C2C(=O)Nc3ccc(C)cc32)c2ccccc21` [Compound 8a], the GI50 in assay [1] (NCI-H226) was 2.95 µM; in assay [2] (OVCAR-4, OVCAR-4), 0.935 µM. Besides, the CC50 in assay [1] (NCI-H226, read-out: LC50) is over 100 µM; in assay [2] (OVCAR-4, read-out: LC50), over 100 µM.

Values taken from publication PMC7717600, “Novel [(N-alkyl-3-indolylmethylene)hydrazono]oxindoles arrest cell cycle and induce cell apoptosis by inhibiting CDK2 and Bcl-2: synthesis, biological evaluation and in silico studies” (Journal of Enzyme Inhibition and Medicinal Chemistry, 2020).
